pEC50: −log10 of the molar value.
Key:
[1] = test system: COPD macrophages and alveolar macrophages from cigarette smoke-exposed mice; conditions: cited from earlier work
[2] = test system: rats on a choline-deficient L-amino acid-defined diet; conditions: cited from earlier work
[3] = test system: rats in a cerebral ischemia-reperfusion model; conditions: cited from earlier work
[4] = test system: NRF2 wild-type but not KO mice; conditions: after administration of tBHQ; cited from earlier work
[5] = test system: NQO1 specific enzyme activity in BEAS-2B cells (marker for NRF2 activation); assay: BEAS-2B NQO1 MTT Assay; format: cell-based; conditions: Homo sapiens, BEAS-2B, 48 h, NQO1 specific activity induction, 48 hours with compound
Procedure, shortened: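 Following 48 h compound treatment at 37° C., 5% CO2, cells were lysed and MTT cocktail added. Product formation was followed kinetically at 570 nm for 30 min. Rate (Delta OD/min) against log concentration was fitted with 3 parameters to give pEC50 for induction of NQO1 specific activity.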

C[S+]([O-])CCCCN=C=S (stereo not drawn) [Sulforaphane]
expression of Macrophage Receptor with Collagenous structure (MARCO) [1]: increases the expression of Macrophage Receptor with Collagenous structure (MARCO)

O=C(NCc1ccccn1)Nc1nnc(-c2ccco2)o1 [NK-252]
progression of histologic abnormalities, especially hepatic fibrosis [2]: significantly attenuated

CC(C)(C)c1cc(O)ccc1O [tert-butylhydroquinone]
cortical damage [3]: reduced cortical damage | cortical glutathione levels [4]: increased in NRF2 wild-type but not KO mice

Cc1c(-c2cnccn2)ssc1=S [oltipraz]
progression of histologic abnormalities, especially hepatic fibrosis [2]: significantly attenuated

CC[C@@H]1Cc2ccccc2S(=O)(=O)N(Cc2cc([C@H](OCc3cn(CC)nn3)C(C)(C)C(=O)O)ccc2C)C1 [Example 69, (3S)-((1-ethyl-1H-1,2,3-triazol-4-yl)methoxy)-2,2-dimethyl-3-(4-methyl-3-(((R)-4-ethyl-1,1-dioxido-4,5-dihydrobenzo[f][1,2]thiazepin-2(3H)-yl)methyl)phenyl)propanoic acid]
pEC50 [5]: 7.00 to 8.00

— US12091409B2, “Ether linked triazoles as NRF2 activators” (ASTEX THERAPEUTICS LIMITED, priority 2016, dated 2024)
